Source: ChEMBL document CHEMBL4627352, “New acrylamide-sulfisoxazole conjugates as dihydropteroate synthase inhibitors” (Bioorg Med Chem, 2020)
Values after ≈ are worked out from the molar mass of the structure shown. Active and inactive are the calls of the source. The calls are words filed in the database; no cut-off is given here.

How the values were obtained:
Escherichia coli [1] = experiment: Inhibition of DHPS in Escherichia coli assessed as antibacterial activity by measuring inhibition zone at 5 mg/mL incubated for 24 hrs by disk diffusion method
[2] = tested on: Syncephalastrum racemosum; experiment: Inhibition of DHPS in Syncephalastrum racemosum assessed as antifungal activity by measuring inhibition zone at 5 mg/mL incubated for 48 hrs by disk diffusion method
Bacillus subtilis [3] = experiment: Inhibition of DHPS in Bacillus subtilis assessed as antibacterial activity by measuring inhibition zone at 5 mg/mL incubated for 24 hrs by disk diffusion method
[4] = tested on: Escherichia coli ATCC 25922; experiment: Inhibition of DHPS in Escherichia coli ATCC 25922 assessed as inhibition of bacterial growth incubated for 24 hrs in presence of folate dependent metabolite, methionine by microbroth dilution method
[5] = tested on: Escherichia coli ATCC 25922; experiment: Inhibition of DHPS in Escherichia coli ATCC 25922 assessed as inhibition of bacterial growth incubated for 24 hrs in presence of folate precursor, pABA by microbroth dilution method
[6] = tested on: Staphylococcus epidermidis; experiment: Inhibition of DHPS in Staphylococcus epidermidis assessed as antibacterial activity by measuring inhibition zone at 5 mg/mL incubated for 24 hrs by disk diffusion method
Aspergillus fumigatus [7] = experiment: Inhibition of DHPS in Aspergillus fumigatus assessed as antifungal activity by measuring inhibition zone at 5 mg/mL incubated for 48 hrs by disk diffusion method
Streptococcus pneumoniae [8] = experiment: Inhibition of DHPS in Streptococcus pneumoniae assessed as antibacterial activity by measuring inhibition zone at 5 mg/mL incubated for 24 hrs by disk diffusion method
Geotrichum candidum [9] = experiment: Inhibition of DHPS in Geotrichum candidum assessed as antifungal activity by measuring inhibition zone at 5 mg/mL incubated for 48 hrs by disk diffusion method
Klebsiella pneumoniae [10] = experiment: Inhibition of DHPS in Klebsiella pneumoniae assessed as antibacterial activity by measuring inhibition zone at 5 mg/mL incubated for 24 hrs by disk diffusion method
Geotrichum candidum [11] = experiment: Inhibition of DHPS in Geotrichum candidum assessed as antifungal activity by measuring inhibition of fungal growth incubated for 48 hrs by microbroth dilution method
[12] = tested on: Syncephalastrum racemosum; experiment: Inhibition of DHPS in Syncephalastrum racemosum assessed as antifungal activity by measuring inhibition of fungal growth incubated for 48 hrs by microbroth dilution method
Aspergillus fumigatus [13] = experiment: Inhibition of DHPS in Aspergillus fumigatus assessed as antifungal activity by measuring inhibition of fungal growth incubated for 48 hrs by microbroth dilution method
Proteus vulgaris [14] = experiment: Inhibition of DHPS in Proteus vulgaris assessed as antibacterial activity by measuring inhibition zone at 5 mg/mL incubated for 24 hrs by disk diffusion method
Aspergillus fumigatus [15] = experiment: Potency index, ratio of sulfisoxazole MIC to compound MIC for Aspergillus fumigatus assessed as inhibition of DHPS-mediated fungal growth incubated for 48 hrs by microbroth dilution method
Escherichia coli [16] = experiment: Inhibition of DHPS in Escherichia coli assessed as antibacterial activity by measuring inhibition of bacterial growth incubated for 24 hrs by microbroth dilution method
[17] = tested on: Staphylococcus epidermidis; experiment: Inhibition of DHPS in Staphylococcus epidermidis assessed as antibacterial activity by measuring inhibition of bacterial growth incubated for 24 hrs by microbroth dilution method
Klebsiella pneumoniae [18] = experiment: Inhibition of DHPS in Klebsiella pneumoniae assessed as antibacterial activity by measuring inhibition of bacterial growth incubated for 24 hrs by microbroth dilution method
Streptococcus pneumoniae [19] = experiment: Inhibition of DHPS in Streptococcus pneumoniae assessed as antibacterial activity by measuring inhibition of bacterial growth incubated for 24 hrs by microbroth dilution method
Bacillus subtilis [20] = experiment: Inhibition of DHPS in Bacillus subtilis assessed as antibacterial activity by measuring inhibition of bacterial growth incubated for 24 hrs by microbroth dilution method
hTERT-BJ = experiment: Cytotoxicity against human hTERT-BJ1 cells at 50 uM by acid phosphatase assay relative to control; format: cell-based
Proteus vulgaris [21] = experiment: Inhibition of DHPS in Proteus vulgaris assessed as antibacterial activity by measuring inhibition of bacterial growth incubated for 24 hrs by microbroth dilution method

Compound | inhibition zone (IZ) (Escherichia coli [1]) | inhibition zone (IZ) [2] | inhibition zone (IZ) (Bacillus subtilis [3]) | inhibition [4] | inhibition [5] | inhibition zone (IZ) [6] | inhibition zone (IZ) (Aspergillus fumigatus [7]) | inhibition zone (IZ) (Streptococcus pneumoniae [8]) | inhibition zone (IZ) (Geotrichum candidum [9]) | inhibition zone (IZ) (Klebsiella pneumoniae [10]) | MIC (Geotrichum candidum [11]) | MIC [12] | inhibition zone (IZ) (Proteus vulgaris [14]) | MIC (Escherichia coli [16]) | MIC [17] | MIC (Klebsiella pneumoniae [18]) | MIC (Streptococcus pneumoniae [19]) | MIC (Bacillus subtilis [20]) | other results
Cc1noc(NS(=O)(=O)c2ccc(NC(=O)/C(C#N)=C(/S)Nc3ccccc3)cc2)c1C | inactive | 14.3 mm | inactive | inactive | inactive | inactive | 16.8 mm | inactive | 17.1 mm | inactive | 31.2 µg/mL (≈ 66.6 µM) | 125 µg/mL (≈ 266 µM) | inactive |  |  |  |  |  | MIC (Aspergillus fumigatus [13]): 15.6 µg/mL (≈ 33.3 µM); Ratio (Aspergillus fumigatus [15]): 2
Cc1noc(NS(=O)(=O)c2ccc(NC(=O)/C(C#N)=C(/S)NC34CC5CC(CC(C5)C3)C4)cc2)c1C | 13.3 mm | 13.6 mm | 17.4 mm | inactive | inactive | 16.2 mm | 14.9 mm | 16.9 mm | 14.7 mm | 16.2 mm | 125 µg/mL (≈ 237 µM) |  | 11.7 mm | 62.5 µg/mL (≈ 118 µM) | 62.5 µg/mL (≈ 118 µM) | 62.5 µg/mL (≈ 118 µM) | 31.2 µg/mL (≈ 59.2 µM) | 31.2 µg/mL (≈ 59.2 µM) | MIC (Aspergillus fumigatus [13]): 62.5 µg/mL (≈ 118 µM)
CN/C(SC)=C(/C#N)C(=O)Nc1ccc(S(=O)(=O)Nc2onc(C)c2C)cc1 | inactive | inactive | inactive | inactive | inactive | inactive | inactive | inactive | inactive | inactive |  |  | inactive |  |  |  |  |  | 
Cc1noc(NS(=O)(=O)c2ccc(NC(=O)c3c(N)n[nH]c3Nc3ccccc3)cc2)c1C | inactive | inactive | 12.6 mm | inactive | inactive | 13.4 mm | inactive | inactive | inactive | inactive |  |  | inactive |  | 15.6 µg/mL (≈ 33.4 µM) |  |  |  | 
CCS/C(Nc1ccccc1)=C(\C#N)C(=O)Nc1ccc(S(=O)(=O)Nc2onc(C)c2C)cc1 | inactive | inactive | 11.2 mm | inactive | inactive | 10.1 mm | inactive | inactive | inactive | inactive |  |  | inactive |  |  |  |  |  | 
C[C@@H]1[C@H](O)[C@@H](C)/C=C/C=C/C=C/C=C/C=C/C=C/C=C/[C@H](O[C@@H]2O[C@H](C)[C@@H](O)[C@H](N)[C@@H]2O)C[C@@H]2O[C@](O)(C[C@@H](O)C[C@@H](O)[C@H](O)CC[C@@H](O)C[C@@H](O)CC(=O)O[C@H]1C)C[C@H](O)[C@H]2C(=O)O |  | 19.7 mm |  |  |  |  | 23.7 mm |  | 28.7 mm |  | 0.007 µg/mL (≈ 0.00758 µM) | 7.81 µg/mL (≈ 8.45 µM) |  |  |  |  |  |  | MIC (Aspergillus fumigatus [13]): 0.12 µg/mL (≈ 0.13 µM)
Cc1noc(NS(=O)(=O)c2ccc(N)cc2)c1C | 15.2 mm | 13.2 mm | 20.8 mm |  |  | 17.5 mm | 15.1 mm | 19.6 mm | 16.8 mm | 18.2 mm | 15.6 µg/mL (≈ 58.5 µM) | 125 µg/mL (≈ 468 µM) | inactive | 62.5 µg/mL (≈ 234 µM) | 7.81 µg/mL (≈ 29.2 µM) | 7.81 µg/mL (≈ 29.2 µM) | 1.95 µg/mL (≈ 7.29 µM) | 0.98 µg/mL (≈ 3.67 µM) | MIC (Aspergillus fumigatus [13]): 62.5 µg/mL (≈ 234 µM)
CC(=O)OC[C@H]1O[C@@H](S/C(Nc2ccccc2)=C(\C#N)C(=O)Nc2ccc(S(=O)(=O)Nc3onc(C)c3C)cc2)[C@H](OC(C)=O)[C@@H](OC(C)=O)[C@H]1OC(C)=O | 13.2 mm | inactive | 19.8 mm | inactive | inactive | 14.2 mm | inactive | 15.1 mm | inactive | 15.8 mm |  |  | 11.2 mm | 125 µg/mL (≈ 156 µM) | 125 µg/mL (≈ 156 µM) | 62.5 µg/mL (≈ 78.1 µM) | 62.5 µg/mL (≈ 78.1 µM) | 1.95 µg/mL (≈ 2.44 µM) | 
C=CCN/C(SC)=C(/C#N)C(=O)Nc1ccc(S(=O)(=O)Nc2onc(C)c2C)cc1 | inactive | 15.7 mm | inactive | inactive | inactive | inactive | 12.6 mm | inactive | 18.2 mm | inactive | 15.6 µg/mL (≈ 34.9 µM) | 62.5 µg/mL (≈ 140 µM) | inactive |  |  |  |  |  | 
CC(=O)OC[C@H]1O[C@@H](S/C(Nc2ccccc2)=C(\C#N)C(=O)Nc2ccc(S(=O)(=O)Nc3onc(C)c3C)cc2)[C@H](OC(C)=O)[C@@H](OC(C)=O)[C@@H]1OC(C)=O | 10.6 mm | inactive | 12.4 mm | inactive | inactive | 18.9 mm | inactive | 10.6 mm | inactive | 14.2 mm |  |  | 8.3 mm |  | 15.6 µg/mL (≈ 19.5 µM) | 62.5 µg/mL (≈ 78.1 µM) |  |  | 
CS/C(Nc1ccccc1)=C(\C#N)C(=O)Nc1ccc(S(=O)(=O)Nc2onc(C)c2C)cc1 | inactive | inactive | inactive | inactive | inactive | inactive | inactive | inactive | inactive | inactive |  |  | inactive |  |  |  |  |  | 
CCN/C(SC)=C(/C#N)C(=O)Nc1ccc(S(=O)(=O)Nc2onc(C)c2C)cc1 |  |  |  |  |  |  |  |  |  |  |  |  |  |  |  |  |  |  | Activity (hTERT-BJ): 1.1%
CC1(C)S[C@@H]2[C@H](NC(=O)[C@H](N)c3ccccc3)C(=O)N2[C@H]1C(=O)O |  |  | 32.4 mm |  |  | 25.4 mm |  | 23.8 mm |  |  |  |  |  |  | 0.06 µg/mL (≈ 0.172 µM) |  | 0.12 µg/mL (≈ 0.343 µM) | 0.24 µg/mL (≈ 0.687 µM) | 
CCS/C(NC12CC3CC(CC(C3)C1)C2)=C(\C#N)C(=O)Nc1ccc(S(=O)(=O)Nc2onc(C)c2C)cc1 | inactive | inactive | inactive | inactive | inactive | inactive | inactive | inactive | inactive | inactive |  |  | inactive |  |  |  |  |  | 
CCN/C(S)=C(/C#N)C(=O)Nc1ccc(S(=O)(=O)Nc2onc(C)c2C)cc1 | 14.3 mm | 13.2 mm | 15.4 mm | inactive | inactive | 17.3 mm | 12.6 mm | 13.7 mm | 17.1 mm | 16.4 mm | 15.6 µg/mL (≈ 37.1 µM) | 7.81 µg/mL (≈ 18.5 µM) | 12.6 mm | 62.5 µg/mL (≈ 148 µM) | 31.2 µg/mL (≈ 74.1 µM) | 62.5 µg/mL (≈ 148 µM) | 62.5 µg/mL (≈ 148 µM) | 62.5 µg/mL (≈ 148 µM) | Activity (hTERT-BJ): 1.7%
GENTAMICIN | 19.9 mm |  |  |  |  |  |  |  |  | 26.3 mm |  |  | 23.4 mm | 1.95 µg/mL |  | 0.03 µg/mL |  | 0.24 µg/mL | MIC (Proteus vulgaris [21]): 0.24 µg/mL
